Laboratory results from patent publication US20070082945A1, “Discodermolide compositions” (priority 2003, published 2007).
≈ marks a conversion by molar mass, not a printed value.

How the values were obtained:
[1] = Solubility of discodermolide in various solvent systems measured by HPLC; format: physicochemical
Method: The solubility of discodermolide in various solvent systems is measured by HPLC and the results shown below: […]

[2] = Stability of 16 mg/mL infusion concentrate in propylene glycol (HPLC, UV detector), Example 13; format: physicochemical; details: for Assay / Total Impurities: 16 mg/mL infusion concentrate in PG
Method: The stability of an infusion concentrate of 16 mg/mL in propylene glycol at different temperatures is determined. Table 3 describes the amount of degradation product formed over a period of up to 12 weeks. The stability is analyzed by determining formation of degradation products in each of the infusion concentrates as a function of time and temperature. Each sample is analyzed by HPLC with a UV detector.

[3] = Stability of solution diluted 1:1.6 with 16.3% w/v ethanol in 0.9% sodium chloride, ambient conditions; format: physicochemical; details: 0.77 mg/mL solution for infusion
Method: In this example, stability of discodermolide in solution diluted 1:1.6 with 16.3% w/v, ethanol in 0.9% sodium chloride solution (0.77 mg/mL) under ambient conditions is measured. Table 5 describes the amount of degradation product formed over a period of up to 24 hours. The stability is analyzed by determining formation of degradation products in each of the infusion solution as a function of time and temperature. Each sample is analyzed y HPLC with a UV detector. The solution for infusion was prepared by diluting a 2.0 mg/ml discodermolide concentrate with 16.3% ethanol in 0.9% sodium chloride solution in a 1:1.6 ration.

[4] = Effect of organic solvent ratio variation on solubility; format: physicochemical; details: propylene glycol/ethanol/normal saline mixture, aqueous with cosolvent or surfactant or cyclodextrin
[5] = Solubility and stability in aqueous media; format: physicochemical
[6] = Precipitation on direct i.v. infusion followed by normal saline flush; details: direct i.v. infusion into the vein followed by a normal saline flush
Method: Preferably the infusion solution of the present invention is prepared by mixing the infusion concentrate with a diluent, such as 16.3% w/v ethanol in saline in a suitable container. A preferred formulation comprises 1 mL of 2 mg/mL infusion concentrate diluted with 1.6 mL of 16.3% w/v ethanol in saline to yield an infusion solution containing 0.77 mg/mL discodermolide in 40% propylene glycol, 10% ethanol and 50% normal saline. This solution is administered via i.v. infusion, or push into Y tubing containing a 0.9% normal saline drip, directly into the vein and the drug solution residue in the tubing will be flushed with normal saline. The volume of discodermolide solution given via i.v. push will vary from 0.3 mL (at the starting does of 0.2 mg or 0.13 mg/m^2) to 26 mL (for a dose of 20 mg or 11.43 mg/m^2) or 43 mL (for a dose of 33 mg or 19.2 mg/m^2).

microtubules = details: compared with paclitaxel; cited from earlier work
purified tubulin = details: among the compounds known to induce polymerization; cited from earlier work
tubulin = details: competition with paclitaxel; cited from earlier work
[7] = normal saline (0.9% sodium chloride)

C=C/C=C\C(C)[C@H](OC(N)=O)[C@@H](C)[C@H](O)[C@@H](C)C/C(C)=C\C(C)C(O)[C@@H](C)/C=C\[C@@H](O)C[C@@H]1OC(=O)[C@H](C)C(O)C1C (single isomer, unassigned; (+)) [discodermolide, (+)-Discodermolide]
solubility ([1]; 20% PEG 300/80% normal saline, aqueous with cosolvent or surfactant or cyclodextrin): 20 µg/mL (≈ 33.7 µM) | solubility ([1]; 20% propylene glycol/80% normal saline, aqueous with cosolvent or surfactant or cyclodextrin, 20% PG/80% normal saline): 130 µg/mL (≈ 219 µM) | solubility ([1]; 30% ethanol/70% normal saline, aqueous with cosolvent or surfactant or cyclodextrin): 200 µg/mL (≈ 337 µM) | solubility ([1]; 60% PEG 300/40% normal saline, aqueous with cosolvent or surfactant or cyclodextrin): 400 µg/mL (≈ 674 µM) | solubility ([1]; 60% ethanol/40% normal saline, aqueous with cosolvent or surfactant or cyclodextrin): 2300 µg/mL (≈ 3870 µM) | solubility ([1]; 60% propylene glycol/40% normal saline, aqueous with cosolvent or surfactant or cyclodextrin, 60% PG/40% normal saline): 530 µg/mL (≈ 893 µM) | solubility ([1]; 100% PEG 300, organic solvent or mixture): > 20000 µg/mL | solubility ([1]; 100% ethanol, organic solvent or mixture): > 20000 µg/mL | solubility ([1]; 100% propylene glycol, organic solvent or mixture, 100% PG): > 20000 µg/mL | Assay ([2]; 0-time): 103.9 % label claim | Total Impurities ([2]; 0-time): 0.59% | Assay ([2]; 5° C., 4 weeks): 102.2 % label claim | Total Impurities ([2]; 5° C., 4 weeks): 0.60% | Assay ([2]; 5° C., 8 weeks): 101.4 % label claim | Total Impurities ([2]; 5° C., 8 weeks): 0.48% | Assay ([2]; 5° C., 12 weeks): 100.7 % label claim | Total Impurities ([2]; 5° C., 12 weeks): 0.49% | Assay ([2]; 25° C./60% RH, 3 weeks): 100.7 % label claim | Total Impurities ([2]; 25° C./60% RH, 3 weeks): 0.56% | Assay ([2]; 25° C./60% RH, 4 weeks): 103.6 % label claim | Total Impurities ([2]; 25° C./60% RH, 4 weeks): 0.66% | Assay ([2]; 25° C./60% RH, 8 weeks): 100.5 % label claim | Total Impurities ([2]; 25° C./60% RH, 8 weeks): 0.68% | Assay ([2]; 25° C./60% RH, 12 weeks): 100.1 % label claim | Total Impurities ([2]; 25° C./60% RH, 12 weeks): 0.65% | Assay ([2]; 50° C./75% RH, 3 weeks): 99.4 % label claim | Total Impurities ([2]; 50° C./75% RH, 3 weeks): 0.65% | Assay ([2]; 50° C./75% RH, 4 weeks): 101.6 % label claim | Total Impurities ([2]; 50° C./75% RH, 4 weeks): 0.65% | Assay ([2]; 50° C./75% RH, 8 weeks): 99.5 % label claim | Total Impurities ([2]; 50° C./75% RH, 8 weeks): 0.65% | Assay ([2]; 50° C./75% RH, 12 weeks): 99.2 % label claim | Total Impurities ([2]; 50° C./75% RH, 12 weeks): 0.62% | Degradation profile and long term stability ([2]; 16 mg/mL infusion concentrate in propylene glycol): comparable to 2.0 mg/mL | Total Impurities ([3]; 0 hours): 0.20 % area | Total Impurities ([3]; 2 hours): 0.23 % area | Total Impurities ([3]; 4 hours): 0.34 % area | Total Impurities ([3]; 8 hours): 0.47 % area | Total Impurities ([3]; 24 hours): 0.80 % area | solubility ([4]; PG 38 / EtOH 9 / normal saline 53 (%, w/v)): 640 µg/mL | solubility ([4]; PG 38 / EtOH 9.5 / normal saline 52.5 (%, w/v)): 700 µg/mL | solubility ([4]; PG 40 / EtOH 8 / normal saline 52 (%, w/v)): 620 µg/mL | solubility ([4]; PG 40 / EtOH 9 / normal saline 51 (%, w/v)): 770 µg/mL | solubility ([4]; PG 40 / EtOH 9.6 / normal saline 50.4 (%, w/v)): 870 µg/mL | solubility ([4]; PG 40 / EtOH 10 / normal saline 50 (%, w/v)): 960 µg/mL | Solubility in aqueous solvents and aqueous-organic mixtures [5]: poor solubility | Stability in aqueous solvents and aqueous-organic mixtures [5]: poor stability | Degradation on dilution of infusion concentrate [5, 7]: degrades to the hydrolysis product | Precipitation on dilution of infusion concentrate [5, 7]: precipitation of the discodermolide is observed | Solubility in water ([5]; water): practically insoluble | Precipitation on administration [6]: will not cause any precipitation | Effectiveness in mechanism-based assays (microtubules): more effective than paclitaxel | Potency to induce polymerization of purified tubulin (purified tubulin): the most potent | Binding to tubulin (tubulin): binds to tubulin competitively with paclitaxel
